# Test results reported in ChEMBL document CHEMBL3745645, “Synthesis, in vitro antitumor activity, dihydrofolate reductase inhibition, DNA intercalation and structure-activity relationship studies of 1,3,5-triazine analogues” (Bioorg Med Chem Lett, 2016).
# Calls of active or inactive are those of the source. The rule behind the calls is not given here.
# How the values were obtained:
# Format in all cases: functional
# [1] = tested on: NCI-H322M; assay: Cytotoxicity against human NCI-H322M cells at 10 uM after 48 hrs by SRB assay
# [2] = tested on: DU-145; assay: Cytotoxicity against human DU145 cells at 10 uM after 48 hrs by SRB assay
# [3] = Cytotoxicity against human SNB19 cells at 10 uM after 48 hrs by SRB assay; conditions: SNB-19, 48 h, read-out: GI
# [4] = tested on: MDA-MB-468; assay: Cytotoxicity against human MDA-MB-468 cells at 10 uM after 48 hrs by SRB assay; conditions: MDA-MB-468, 48 h, read-out: GI
# [5] = tested on: SN12C; assay: Cytotoxicity against human SN12C cells at 10 uM after 48 hrs by SRB assay; conditions: read-out: GI
# [6] = tested on: HT-29; assay: Cytotoxicity against human HT-29 cells at 10 uM after 48 hrs by SRB assay
# [7] = tested on: SK-OV-3; assay: Cytotoxicity against human SKOV3 cells at 10 uM after 48 hrs by SRB assay
# [8] = tested on: NCI-H226; assay: Cytotoxicity against human NCI-H226 cells at 10 uM after 48 hrs by SRB assay; conditions: NCI-H226, 48 h, read-out: GI
# [9] = tested on: NCI-H460; assay: Cytotoxicity against human NCI-H460 cells at 10 uM after 48 hrs by SRB assay; conditions: NCI-H460, 48 h, read-out: GI
# [10] = Cytotoxicity against human UO31 cells at 10 uM after 48 hrs by SRB assay; conditions: UO-31, 48 h, read-out: GI
# [11] = tested on: M14; assay: Cytotoxicity against human M14 cells at 10 uM after 48 hrs by SRB assay; conditions: M14, 48 h, read-out: GI
# [12] = tested on: SR; assay: Cytotoxicity against human SR cells at 10 uM after 48 hrs by SRB assay; conditions: read-out: GI
# [13] = tested on: K562; assay: Cytotoxicity against human K562 cells at 10 uM after 48 hrs by SRB assay; conditions: K562, 48 h, read-out: GI
# [14] = Cytotoxicity against human SNB75 cells at 10 uM after 48 hrs by SRB assay; conditions: SNB-75, 48 h, read-out: GI
# [15] = Cytotoxicity against human COLO205 cells at 10 uM after 48 hrs by SRB assay; conditions: COLO 205, 48 h, read-out: GI
# [16] = tested on: NCI-H522; assay: Cytotoxicity against human NCI-H522 cells at 10 uM after 48 hrs by SRB assay; conditions: NCI-H522, 48 h, read-out: GI
# [17] = tested on: A498; assay: Cytotoxicity against human A498 cells at 10 uM after 48 hrs by SRB assay; conditions: A498, 48 h, read-out: GI
# [18] = tested on: IGROV-1; assay: Cytotoxicity against human IGROV1 cells at 10 uM after 48 hrs by SRB assay
# [19] = tested on: TK-10; assay: Cytotoxicity against human TK10 cells at 10 uM after 48 hrs by SRB assay
# [20] = Cytotoxicity against human HCT15 cells at 10 uM after 48 hrs by SRB assay; conditions: HCT-15, 48 h, read-out: GI
# [21] = tested on: 786-0; assay: Cytotoxicity against human 786-0 cells at 10 uM after 48 hrs by SRB assay; conditions: 786-0, 48 h, read-out: GI
# [22] = tested on: UACC-257; assay: Cytotoxicity against human UACC257 cells at 10 uM after 48 hrs by SRB assay
# [23] = Cytotoxicity against human RPMI8226 cells at 10 uM after 48 hrs by SRB assay; conditions: RPMI-8226, 48 h, read-out: GI
# [24] = tested on: CCRF-CEM; assay: Cytotoxicity against human CCRF-CEM cells at 10 uM after 48 hrs by SRB assay; conditions: read-out: GI
# [25] = Cytotoxicity against human OVCAR8 cells at 10 uM after 48 hrs by SRB assay; conditions: OVCAR-8, 48 h, read-out: GI
# [26] = Cytotoxicity against human RXF393 cells at 10 uM after 48 hrs by SRB assay; conditions: RXF 393, 48 h, read-out: GI
# [27] = tested on: A549; assay: Cytotoxicity against human A549 cells at 10 uM after 48 hrs by SRB assay; conditions: A549, 48 h, read-out: GI
# [28] = Cytotoxicity against human OVCAR3 cells at 10 uM after 48 hrs by SRB assay; conditions: OVCAR-3, 48 h, read-out: GI
# [29] = Cytotoxicity against human NCI-ADR-RES cells at 10 uM after 48 hrs by SRB assay; conditions: read-out: GI
# [30] = Cytotoxicity against human SW620 cells at 10 uM after 48 hrs by SRB assay; conditions: SW-620, 48 h, read-out: GI
# [31] = tested on: CAKI-1; assay: Cytotoxicity against human Caki1 cells at 10 uM after 48 hrs by SRB assay
# [32] = tested on: U-251; assay: Cytotoxicity against human U251 cells at 10 uM after 48 hrs by SRB assay; conditions: U-251, 48 h, read-out: GI
# [33] = tested on: MDA-MB-435; assay: Cytotoxicity against human MDA-MB-435 cells at 10 uM after 48 hrs by SRB assay; conditions: MDA-MB-435, 48 h, read-out: GI
# [34] = tested on: KM12; assay: Cytotoxicity against human KM12 cells at 10 uM after 48 hrs by SRB assay; conditions: KM12, 48 h, read-out: GI
# [35] = tested on: SK-MEL-5; assay: Cytotoxicity against human SK-MEL-5 cells at 10 uM after 48 hrs by SRB assay; conditions: SK-MEL-5, 48 h, read-out: GI
# [36] = tested on: NCI-H23; assay: Cytotoxicity against human NCI-H23 cells at 10 uM after 48 hrs by SRB assay; conditions: NCI-H23, 48 h, read-out: GI
# [37] = Cytotoxicity against human SF295 cells at 10 uM after 48 hrs by SRB assay; conditions: SF-295, 48 h, read-out: GI
# [38] = Cytotoxicity against human BT549 cells at 10 uM after 48 hrs by SRB assay; conditions: BT-549, 48 h, read-out: GI
# [39] = tested on: ACHN; assay: Cytotoxicity against human ACHN cells at 10 uM after 48 hrs by SRB assay; conditions: read-out: GI
# [40] = Cytotoxicity against human MOLT4 cells at 10 uM after 48 hrs by SRB assay; conditions: MOLT-4, 48 h, read-out: GI
# [41] = tested on: Malme-3M; assay: Cytotoxicity against human MALME-3M cells at 10 uM after 48 hrs by SRB assay; conditions: read-out: GI
# [42] = Cytotoxicity against human HOP62 cells at 10 uM after 48 hrs by SRB assay; conditions: HOP-62, 48 h, read-out: GI
# [43] = tested on: MDA-MB-231; assay: Cytotoxicity against human MDA-MB-231 cells at 10 uM after 48 hrs by SRB assay; conditions: MDA-MB-231, 48 h, read-out: GI
# [44] = Cytotoxicity against human Hs 578T cells at 10 uM after 48 hrs by SRB assay; conditions: read-out: GI
# [45] = Cytotoxicity against human HOP92 cells at 10 uM after 48 hrs by SRB assay; conditions: HOP-92, 48 h, read-out: GI
# [46] = Cytotoxicity against human UACC62 cells at 10 uM after 48 hrs by SRB assay; conditions: UACC-62, 48 h, read-out: GI
# [47] = Cytotoxicity against human HCT116 cells at 10 uM after 48 hrs by SRB assay; conditions: HCT-116, 48 h, read-out: GI
# [48] = tested on: T47D; assay: Cytotoxicity against human T47D cells at 10 uM after 48 hrs by SRB assay; conditions: read-out: GI
# [49] = tested on: OVCAR-4; assay: Cytotoxicity against human OVCAR4 cells at 10 uM after 48 hrs by SRB assay
# [50] = Cytotoxicity against human SF539 cells at 10 uM after 48 hrs by SRB assay; conditions: SF-539, 48 h, read-out: GI
# [51] = Cytotoxicity against human PC3 cells at 10 uM after 48 hrs by SRB assay; conditions: PC-3, 48 h, read-out: GI
# [52] = tested on: HCC 2998; assay: Cytotoxicity against human HCC2998 cells at 10 uM after 48 hrs by SRB assay
# [53] = tested on: LOX IMVI; assay: Cytotoxicity against human LOXIMVI cells at 10 uM after 48 hrs by SRB assay
# [54] = tested on: SF-268; assay: Cytotoxicity against human SF268 cells at 10 uM after 48 hrs by SRB assay
# [55] = tested on: MCF7; assay: Cytotoxicity against human MCF7 cells at 10 uM after 48 hrs by SRB assay; conditions: MCF7, 48 h, read-out: GI
# [56] = tested on: SK-MEL-28; assay: Cytotoxicity against human SK-MEL-28 cells at 10 uM after 48 hrs by SRB assay
compound,measurement,setting,value
Cc1nc2ccc(Nc3nc(NCCO)nc(Nc4ccc(F)cc4)n3)cc2n1Cc1ccccc1,growth inhibition (GI),[1],inactive
same,growth inhibition (GI),[2],inactive
same,inhibition of growth at 10 µM,[3],2.43%
same,inhibition of growth at 10 µM,[4],23%
same,inhibition of growth at 10 µM,[5],1.6%
same,growth inhibition (GI),[6],inactive
same,growth inhibition (GI),[7],inactive
same,inhibition of growth at 10 µM,[8],11.1%
same,inhibition of growth at 10 µM,[9],4.15%
same,inhibition of growth at 10 µM,[10],13.2%
same,inhibition of growth at 10 µM,[11],6.68%
same,inhibition of growth at 10 µM,[12],28.3%
same,inhibition of growth at 10 µM,[13],25.7%
same,inhibition of growth at 10 µM,[14],8.89%
same,inhibition of growth at 10 µM,[15],6.67%
same,inhibition of growth at 10 µM,[16],20.4%
same,inhibition of growth at 10 µM,[17],25.3%
same,growth inhibition (GI),[18],inactive
same,growth inhibition (GI),[19],inactive
same,inhibition of growth at 10 µM,[20],8.36%
same,inhibition of growth at 10 µM,[21],11.9%
same,growth inhibition (GI),[22],inactive
same,inhibition of growth at 10 µM,[23],33.7%
same,inhibition of growth at 10 µM,[24],25.3%
same,inhibition of growth at 10 µM,[25],4.04%
same,inhibition of growth at 10 µM,[26],26.1%
same,inhibition of growth at 10 µM,[27],13.8%
same,inhibition of growth at 10 µM,[28],3.09%
same,inhibition of growth at 10 µM,[29],18.1%
same,inhibition of growth at 10 µM,[30],0.58%
same,growth inhibition (GI),[31],inactive
same,inhibition of growth at 10 µM,[32],6.96%
same,inhibition of growth at 10 µM,[33],2.54%
same,inhibition of growth at 10 µM,[34],7.5%
same,inhibition of growth at 10 µM,[35],26%
same,inhibition of growth at 10 µM,[36],6.24%
same,inhibition of growth at 10 µM,[37],11%
same,inhibition of growth at 10 µM,[38],20.6%
same,inhibition of growth at 10 µM,[39],4.66%
same,inhibition of growth at 10 µM,[40],27.5%
same,inhibition of growth at 10 µM,[41],6.95%
same,inhibition of growth at 10 µM,[42],0.23%
same,inhibition of growth at 10 µM,[43],7.95%
same,inhibition of growth at 10 µM,[44],8.56%
same,inhibition of growth at 10 µM,[45],19.4%
same,inhibition of growth at 10 µM,[46],6.56%
same,inhibition of growth at 10 µM,[47],13.3%
same,inhibition of growth at 10 µM,[48],39.3%
same,growth inhibition (GI),[49],inactive
same,inhibition of growth at 10 µM,[50],3.59%
same,inhibition of growth at 10 µM,[51],0.89%
same,growth inhibition (GI),[52],inactive
same,growth inhibition (GI),[53],inactive
same,growth inhibition (GI),[54],inactive
same,inhibition of growth at 10 µM,[55],19.8%
same,growth inhibition (GI),[56],inactive
